Measured values: patent publication US20250186411A1, “Methods of Treating Disorders Associated with Overactivation of IKKB” (The United States Government as represented by the …, priority 2023, published 2025)
pEC50, pIC50: −log10 of the molar value. Several values for one entry are separate records, joined by “and”; a condition that tells them apart may be missing. Identical values can stand only once.

Legend:
[1] = tested on: KLF15 promoter (pEZX-FR03hKLF15p human podocytes); experiment: Half maximal effective concentration (EC50) of KLF15 reporter activity; type: cell-based; conditions: KLF15 reporter activity, dose-response; read-out: EC50
Experimental: The EC50 was determined using nonlinear regression and then choosing the equation of Sigmoidal function, 4PL method (X is log(concentration); or the equation of log(agonist) vs. response—variable slope).
(§1) To identify small molecule inducers of KLF15 expression in human podocytes, human podocytes were generated with a dual reporter, firefly luciferase directed at the KLF15 promoter region and renilla luciferase (pEZX-FR03hKLF15p). […] The positive controls were inducers of KLF15 expression, dexamethasone (DEX) and all-trans retinoic acid (atRA), and […] and cell-free wells served as negative controls.

[2] = target: T1, IKKβ (Homo sapiens, UniProt O14920)
Experimental: After the kinase reaction, an equal volume of ADP-Go™ Reagent is added to both terminate the kinase reaction and deplete the remaining ATP. Subsequently, the Detection Reagent is added to simultaneously convert ADP to ATP and measure the concentrations of newly synthesized ATP using a luciferase/luciferin reaction. The light generated is measured using a 96-well plate reader SpectraMax M3 (Molecular Devices). Luminescence can be correlated to ADP concentrations by using an ATP-to-ADP conversion curve.

[3] = tested on: NF-κB signaling (p50, p65, IκBα)
Text: Differentiated human podocytes were lysed with a fractionation buffer containing 1× protease and phosphatase inhibitor cocktail (Thermo Fisher Scientific) and separate cytoplasmic and nuclear fractions using a modified procedure described before (72).

[4] = tested on: Tg26 mice; experiment: HIV-1 transgenic (Tg26) model; type: in vivo, mouse
Experimental: (§2) Urine albumin was quantified by ELISA using a kit from Bethyl Laboratory Inc. Urine creatinine levels were measured in the same samples using the Creatinine Colorimetric Assay Kit (500701; Cayman Chemical) as per manufacturer's protocol.
(§3) Briefly formalin-fixed and paraffin embedded sections were deparaffinized, and endogenous peroxidase was inactivated with H2O2. All kidney sections from these mice were prepared in identical fashion. Immunofluorescence was performed using rabbit anti-KLF15, mouse anti-WT1 (Santa Cruz, SC-7385), rabbit anti-Synaptopodin (Sigma, SAB3500585), rabbit anti-p65 (Cell Signaling Tech, 8242S) antibodies. After washing, sections were incubated with the appropriate fluorophore-linked secondary antibody (Alexa Fluor 647 Donkey anti-mouse, Alexa Fluor 568 Donkey anti-rabbit antibodies, Life Technologies). After counter staining with Hoechst (Thermo Fisher Scientific), slides were mounted in Prolong Gold mounting media (Thermo Fisher Scientific) and photographed under a Nikon Eclipse Ni-E Fully Motorized Microscope System with a DS-Qi2 digital camera.
(§4) Quantification of KLF15 staining in the podocytes was determined by quantifying the intensity of KLF15 staining (optical density) in WT1+Hoechst staining using ImageJ 1.53c software (National Institute of Health, http://imagej.nih.gov/ij).
(§5) Mice were perfused with PBS, and the kidneys were fixed in 10% phosphate buffered formalin overnight and switched to 70% ethanol before processing for histology. Kidney tissue was embedded in paraffin by Stony Brook Medicine Research Histology Core Laboratory (RHCL)—Department of Pathology and 4-μm-thick sections were stained with periodic acid-Schiff (PAS), hematoxylin & eosin (H&E), and masson's trichrome (Sigma-Aldrich). Quantification of % FSGS was determined by renal pathology in a blinded fashion (Huntsman Cancer Institute-University of Utah Health).

[5] = tested on: KLF15 promoter with mutation in the GRE (pEZX-FR03hKLF5p-mutant podocytes); experiment: GR-mutant KLF15 reporter assay; type: cell-based, human; conditions: as compared to DMSO
[6] = tested on: KLF15 promoter (pEZX-FR03hKLF15p human podocytes); experiment: KLF15 reporter high-throughput screening assay in human podocytes (firefly/renilla luciferase); type: cell-based
Experimental: Briefly, these podocytes proliferate under permissive conditions (gamma interferon at 33° C.), but differentiate under nonpermissive conditions (37° C.).
The amplified fragment contains MluI and PmeI RE sites and was subcloned into the MluI and PmeI cloning site of the pEZX-FR03 Firefly luciferase (FLuc) and Renilla luciferase (Rluc) reporter cloning vector (GeneCopoeia) to generate pEZX-FR03hKLF15p. Following verification of the sequence by restriction and μsequencing, the pEZX-FR03hKLF15p construct (which contains a puromycin resistance cassette) was transfected into human podocytes followed by selection in puromycin-containing media for 2 weeks. Surviving podocytes clones were pooled together for further analysis.
The library of compounds from the National Cancer Institute (Approved Oncology Drugs Set VI; Natural Products Set III; Diversity Set V; and Mechanistic Diversity Set II) were added to a final concentration of 1 μM in 0.5% DMSO in the low FBS cell culture media (0.2% FBS) using liquid handling system PipetMax (Gilson). After 24 hours incubation at 37° C., the Luc-Pair™ Duo-Luciferase HT Assay Kit (GeneCopoeia LF015) were used and firefly and renilla luciferase activity was determined using the SpectraMax M3 (Molecular Devices). Positive controls were all-trans retinoic acid (atRA) (1 μM) and dexamethasone (DEX) (1 μM). Negative controls were DMSO and cell-free media.
as §1

[7] = tested on: FVB/n mice; experiment: Nephrotoxic Serum Nephritis (NTS) model; type: in vivo, mouse
Experimental: In the Nephrotoxic Serum Nephritis (NTS) model, 8-week-old FVB/n mice were initially sensitized with an intraperitoneal injection of 0.5 mg of sheep IgG (IP, Jackson ImmunoResearch) with complete Freund's adjuvant (IP, Millipore Sigma). Five days later, mice were administered 100 μl of NTS (IP, ProbeTex), as previously described (Estrada et al. (2018) JCI Insight 3). […] Urine was collected and mice were euthanized at day 7 or day 14 post-NTS treatment.
as §2, §3, §4, §5

[8] = tested on: KLF15 promoter (pEZX-FR03hKLF5p human podocytes); experiment: Lipopolysaccharide treatment in human podocytes, KLF15 reporter activity; type: cell-based; conditions: as compared to DMSO
Experimental: Differentiated pEZX-FR03hKLF5p human podocytes were treated with 25 μg/ml lipopolysaccharide (LPS) or vehicle and 1 μM KLF15 agonist or vehicle control for 24 hours. Firefly and renilla luciferase assay were measured initially to determine relative KLF15 reporter activity.

[9] = target: T1, IKKβ; experiment: Thermal shift assay; conditions: BT503 1 μM, human podocytes
Experimental: Each tube was treated at a range of temperatures (40° C. to 52° C.) for 3 minutes using Eppendorf Mastercycler gradient temperature setting. Protein was subsequently extracted from cells using freeze-thaw cycle, and IKKβ and β-actin were detected using western blot.

[10] = tested on: mice; conditions: as compared to DMSO treatment
Text: Serum was subsequently collected and mice were euthanized for collection of kidney, liver, and heart tissue.

T1 sequence (O14920 whole entry): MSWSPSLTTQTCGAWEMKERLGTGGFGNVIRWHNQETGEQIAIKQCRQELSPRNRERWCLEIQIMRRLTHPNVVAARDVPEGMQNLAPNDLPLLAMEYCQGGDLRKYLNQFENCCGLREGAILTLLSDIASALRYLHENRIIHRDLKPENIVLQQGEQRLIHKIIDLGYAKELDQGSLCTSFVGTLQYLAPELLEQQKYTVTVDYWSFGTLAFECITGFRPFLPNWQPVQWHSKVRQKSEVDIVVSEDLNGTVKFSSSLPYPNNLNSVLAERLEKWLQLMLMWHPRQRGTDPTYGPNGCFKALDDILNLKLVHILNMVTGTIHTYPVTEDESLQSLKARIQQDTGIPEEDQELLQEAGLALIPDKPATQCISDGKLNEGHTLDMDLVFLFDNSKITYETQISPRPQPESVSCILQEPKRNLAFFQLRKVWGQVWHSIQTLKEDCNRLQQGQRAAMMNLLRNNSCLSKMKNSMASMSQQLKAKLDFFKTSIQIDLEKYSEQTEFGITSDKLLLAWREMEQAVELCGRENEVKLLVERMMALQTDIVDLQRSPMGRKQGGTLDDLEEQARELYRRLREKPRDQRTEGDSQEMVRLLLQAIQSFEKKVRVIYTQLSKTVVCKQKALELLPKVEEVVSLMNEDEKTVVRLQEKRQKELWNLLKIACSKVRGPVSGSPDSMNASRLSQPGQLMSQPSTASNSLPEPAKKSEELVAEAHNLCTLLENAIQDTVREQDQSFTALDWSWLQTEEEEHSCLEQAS

Structure (SMILES): CSc1ccc(NC(=O)Nc2ccc(C)nc2)cc1 [BT503]
- pEC50 [1]: ~8.15 and > 8.00
- inhibition of kinase activity at higher ATP concentrations ([2]; ATP 50 μM): mitigated
- pIC50 ([2]; read-out: IC50 (IKKβ kinase activity), IKBKB^WT): 6.79
- nuclear localization of p50 and p65 ([3]; LPS-treated podocytes): mitigated this translocation
- IκBα expression ([3]; vs DMSO in the setting of LPS treatment): significantly increased
- p65 expression (kidney lysates) [4]: reduced
- albuminuria ([4]; daily for 14 days, vs DMSO): significantly mitigated the increase in albuminuria
- % of glomeruli with focal segmental and global GS lesions ([4]; vs DMSO): significantly reduced
- glomerular synaptopodin expression ([4]; vs DMSO): restored
- interstitial fibrosis ([4]; vs DMSO): reduced interstitial fibrosis
- kidney function (serum urea nitrogen and creatinine) ([4]; vs DMSO): improved kidney function
- podocyte number (WT1+ podocytes per glomerular cross-sectional area) ([4]; vs DMSO): preserved podocyte number
- KLF15-mutant reporter activity [5]: induced KLF15 activity
- KLF15 activity as compared to DEX-treated podocytes [6]: higher KLF15 activity
- KLF15 activity under nonpermissive versus permissive conditions ([6]; 37 C vs 33 C): only induces KLF15 activity under nonpermissive (37 C) conditions
- albuminuria ([7]; day 7 and 14 post-NTS treatment, vs DMSO): significantly less albuminuria
- p65 expression in the glomeruli ([7]; post-NTS treatment): attenuated
- glomerular injury (% of glomeruli with FSGS, extracapillary proliferation) and proteinaceous casts ([7]; vs DMSO): significantly reduced
- glomerular synaptopodin expression ([7]; vs DMSO): restored
- interstitial fibrosis (masson's trichrome and α-SMA staining) ([7]; vs DMSO): less interstitial fibrosis
- podocyte number (WT1+ podocytes per glomerular cross-sectional area) ([7]; vs DMSO): restored the podocyte number
- KLF15 activity in the setting of LPS treatment [8]: maintained the elevated KLF15 activity
- IKKβ stability (thermal shift) [9]: IKKβ stability was reduced in DMSO as compared to BT503 treatment
- aspartate aminotransferase (AST), alanine transaminase (ALT) levels [10]: no significant difference
- histological changes in the kidney, heart, and liver tissue [10]: no significant difference
